Source: patent publication US20170339955A1, “Substituted N-(tetrazol-5-yl)- and N-(triazol-5-yl)arylcarboxamide compounds and their use as herbicides” (BASF SE, priority 2012, published 2017)

Key:
Assay type in all cases: in vivo
[1] = test system: Amaranthus retroflexus L. (pigweed); test: Greenhouse post-emergence treatment of Amaranthus retroflexus L. (pigweed); details: application rate 1000 g/ha, scale 0 (no damage) to 100 (complete destruction)
Source text: (§1) The culture containers used were plastic flowerpots containing loamy sand with approximately 3.0% of humus as the substrate. The seeds of the test plants were sown separately for each species.
(§2) For the post-emergence treatment, the test plants were first grown to a height of 3 to 15 cm, depending on the plant habit, and only then treated with the active ingredients which had been suspended or emulsified in water. For this purpose, the test plants were either sown directly and grown in the same containers, or they were first grown separately as seedlings and transplanted into the test containers a few days prior to treatment.
(§3) Depending on the species, the plants were kept at 10-25° C. or 20-35° C. The test period extended over 2 to 4 weeks. During this time, the plants were tended, and their response to the individual treatments was evaluated.
(§4) Evaluation was carried out using a scale from 0 to 100. 100 means no emergence of the plants, or complete destruction of at least the aerial moieties, and 0 means no damage, or normal course of growth. A good herbicidal activity is given at values of at least 70 and a very good herbicidal activity is given at values of at least 85.

[2] = test system: Abutilon theophrasti (velvetleaf); test: Greenhouse post-emergence treatment of Abutilon theophrasti (velvetleaf); details: application rate 1000 g/ha, scale 0 (no damage) to 100 (complete destruction)
Source text: as §1, §2, §3, §4

[3] = test system: Amaranthus retroflexus L. (pigweed); test: Greenhouse pre-emergence treatment of Amaranthus retroflexus L. (pigweed); details: application rate 1000 g/ha, scale 0 (no damage) to 100 (no emergence/complete destruction)
Source text: as §1
(§5) For the pre-emergence treatment, the active ingredients, which had been suspended or emulsified in water, were applied directly after sowing by means of finely distributing nozzles. The containers were irrigated gently to promote germination and growth and subsequently covered with transparent plastic hoods until the plants had rooted. This cover caused uniform germination of the test plants, unless this has been impaired by the active ingredients.
as §3, §4

[4] = test system: Abutilon theophrasti (velvetleaf); test: Greenhouse pre-emergence treatment of Abutilon theophrasti (velvetleaf); details: application rate 1000 g/ha, scale 0 (no damage) to 100 (no emergence/complete destruction)
Source text: as §1, §5, §3, §4

[5] = test system: Echinochloa crus-galli (barnyard grass); test: Greenhouse post-emergence treatment of Echinochloa crus-galli (barnyard grass); details: application rate 1000 g/ha, scale 0 (no damage) to 100 (complete destruction)
Source text: as §1, §2, §3, §4

Row | Compound | damage [%] [1] [%] | damage [%] [2] [%] | damage [%] [3] [%] | damage [%] [4] [%] | damage [%] [5] [%]
1 | Cn1nnnc1NC(=O)c1cc(F)c(Cl)cc1Cl [V.A-5] | 100 | 100 | 100 |  | 
2 | Cn1ncnc1NC(=O)c1c(F)ccc(Cl)c1Cl [I.A-1441] | 100 | 75 | 100 |  | 
3 | Cn1ncnc1NC(=O)c1c(F)cc(Cl)cc1Cl [I.A-1] | 100 | 100 | 80 |  | 
4 | CSc1c(Cl)cc(F)c(C(=O)Nc2nnnn2C)c1Cl [V.A-1442, 2,4-dichloro-6-fluoro-3-methylsulfanyl-n-(1-methyltetrazol-5-yl)benzamide] | 100 | 100 |  | 100 | 
5 | Cn1nnnc1NC(=O)c1c(F)cc(Cl)c(S(C)(=O)=O)c1Cl [V.A.-41, 2,4-dichloro-6-fluoro-3-methylsulfonyl-n-(1-methyltetrazol-5-yl)benzamide] | 100 | 100 | 100 |  | 
6 | Cn1ncnc1NC(=O)c1cc(F)c(Cl)cc1Cl [I.A-5] | 85 | 75 |  |  | 90
7 | Cn1ncnc1NC(=O)c1c(F)cc(Cl)c(S(C)(=O)=O)c1Cl [I.A-41, 2,4-dichloro-6-fluoro-3-methylsulfonyl-n-(2-methyl-1,2,4-triazol-3-yl)benzamide] | 100 | 100 |  | 95 | 
